Test results published in US8674113B2, “Compounds” (Boehringer Ingelheim International GmbH, priority 2010, dated 2014).
Where two headings read alike, the source gives them in different places.

Legend:
mPGES-1 in A549 cells = mPGES-1 in A549 cells (Homo sapiens (Human), UniProt O14684); assay: A549 cell-based assay (PGE2 formation, 50% human serum)
Outline: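 A549 cells in F-12K with 50% human serum were stimulated 20-24 h with 5 ng/ml IL-1β and 10 nM arachidonic acid in presence of compound or vehicle. PGE2 in the cell-free medium was measured by HTRF, normalised to vehicle (100%). IC50 from 6-8 point titrations.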

[1] = biological target: recombinant human mPGES-1 (Homo sapiens (Human), UniProt O14684); assay: mPGES-1 enzyme assay (HTRF detection of PGE2); format: biochemical
Outline: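 Microsomes from E. coli expressing recombinant human mPGES-1 (~0.5 μg protein/well) in 0.1 M phosphate pH 7.4 with 2.5 mM GSH, pre-incubated with compound 25 min at room temperature. PGH2 (2 μM final) added, reaction stopped with FeCl2 after 60 s; PGE2 quantified by HTRF (665/620 ratio) against a calibration curve, IC50 by nonlinear regression after background subtraction.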

[2] = IL-1β 5 ng/ml, 10 nM arachidonic acid, 20-24 h, read-out: mPGES-1 inhibitory effect IC50 in the cell assay
[3] = recombinant human mPGES-1 microsomes, PGH2 2 μM, 60 seconds, read-out: mPGES-1 inhibitory effect IC50 in the enzyme assay
[4] = Table C comparison of selected benzimidazoles, read-out: Cell IC50
[5] = Table C comparison of selected benzimidazoles, read-out: Enzym IC50

Chain of recombinant human mPGES-1 (O14684 whole entry): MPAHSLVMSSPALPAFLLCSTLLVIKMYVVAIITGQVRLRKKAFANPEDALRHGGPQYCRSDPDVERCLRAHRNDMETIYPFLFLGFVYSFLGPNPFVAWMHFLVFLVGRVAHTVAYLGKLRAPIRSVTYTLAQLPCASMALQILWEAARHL
Chain of mPGES-1 in A549 cells (O14684 whole entry): as above

Cn1c(Nc2c(Cl)ccc(CNC(=O)[C@](C)(O)C(F)(F)F)c2Cl)nc2cc(C(=O)Nc3ccc(F)c(Cl)c3)c(N3CCC(C(F)(F)F)CC3)cc21 [Example 234]
IC50 (mPGES-1 in A549 cells; [2]): 8 nM
IC50 [1, 3]: 3.1 nM

Cn1c(Nc2c(Cl)ccc(CNC(=O)C(C)(C)F)c2Cl)nc2cc(C(=O)Nc3ccc(F)c(Cl)c3)c(N3CC[C@@H](F)C3)cc21 [Example 235]
IC50 (mPGES-1 in A549 cells; [2]): 4.4 nM
IC50 [1, 3]: 3.9 nM

Cn1c(Nc2c(Cl)ccc(CNC(=O)C(C)(C)C(F)(F)F)c2Cl)nc2cc(C(=O)Nc3ccc(F)c(Cl)c3)c(N3CC[C@@H](F)C3)cc21 [Example 236]
IC50 (mPGES-1 in A549 cells; [2]): 2 nM
IC50 [1, 3]: 3.3 nM

Cn1c(Nc2c(Cl)ccc(CNC(=O)C(C)(C)F)c2Cl)nc2cc(C(=O)Nc3ccc(OC(F)(F)F)cc3)c(N3CCC(C(F)(F)F)CC3)cc21 [Example 237]
IC50 (mPGES-1 in A549 cells; [2]): < 1 nM
IC50 [1, 3]: 1.8 nM

Cn1c(Nc2c(Cl)ccc(CNC(=O)C(C)(C)C(F)(F)F)c2Cl)nc2cc(C(=O)Nc3ccc(OC(F)(F)F)cc3)c(N3CCC(C(F)(F)F)CC3)cc21 [Example 238]
IC50 (mPGES-1 in A549 cells; [2]): 2 nM
IC50 [1, 3]: 2.2 nM

Cn1c(Nc2c(Cl)ccc(CNC(=O)C(C)(C)F)c2Cl)nc2cc(C(=O)Nc3ccc(OC(F)(F)F)cc3)c(N3CC[C@@H](F)C3)cc21 [Example 239]
IC50 (mPGES-1 in A549 cells; [2]): 5 nM
IC50 [1, 3]: 3.5 nM

Cn1c(Nc2c(Cl)ccc(CNC(=O)C(C)(C)C(F)(F)F)c2Cl)nc2cc(C(=O)Nc3ccc(OC(F)(F)F)cc3)c(N3CC[C@@H](F)C3)cc21 [Example 240]
IC50 (mPGES-1 in A549 cells; [2]): 2 nM
IC50 [1, 3]: 4.9 nM

Cn1c(Nc2c(Cl)ccc(CNC(=O)C(C)(C)C)c2Cl)nc2cc(C(=O)Nc3ccc(OC(F)(F)F)cc3)c(N3CC[C@@H](F)C3)cc21 [Example 241]
IC50 (mPGES-1 in A549 cells; [2]): < 1 nM
IC50 [1, 3]: 3.5 nM

Cn1c(Nc2c(Cl)ccc(CNC(=O)C(C)(C)F)c2Cl)nc2cc(C(=O)Nc3cccc(C(F)(F)F)n3)c(N3CCC(C(F)(F)F)CC3)cc21 [Example 242]
IC50 (mPGES-1 in A549 cells; [2]): 5 nM
IC50 [1, 3]: 1.7 nM

Cn1c(Nc2c(Cl)ccc(CNC(=O)[C@@](C)(O)C(F)(F)F)c2Cl)nc2cc(C(=O)Nc3cccc(C(F)(F)F)n3)c(N3CCC(C(F)(F)F)CC3)cc21 [Example 243]
IC50 (mPGES-1 in A549 cells; [2]): 4.5 nM
IC50 [1, 3]: 2.9 nM

Cn1c(Nc2c(Cl)ccc(CNC(=O)[C@](C)(O)C(F)(F)F)c2Cl)nc2cc(C(=O)Nc3cccc(C(F)(F)F)n3)c(N3CCC(C(F)(F)F)CC3)cc21 [Example 244]
IC50 (mPGES-1 in A549 cells; [2]): 27 nM
IC50 [1, 3]: 4.2 nM

Cn1c(Nc2c(Cl)ccc(CNC(=O)C(C)(C)C)c2Cl)nc2cc(C(=O)Nc3cccc(C(F)(F)F)n3)c(N3CC[C@@H](F)C3)cc21 [Example 245]
IC50 (mPGES-1 in A549 cells; [2]): 2.4 nM
IC50 [1, 3]: 3.8 nM

Cn1c(Nc2c(Cl)ccc(CNC(=O)C(C)(C)C)c2Cl)nc2cc(C(=O)Nc3ccc(F)c(Cl)c3)c(N3CC[C@@H](F)C3)cc21 [Example 246]
IC50 (mPGES-1 in A549 cells; [2]): 1.5 nM
IC50 [1, 3]: 2.9 nM

Cn1c(Nc2c(Cl)ccc(CNC(=O)[C@@](C)(O)C(F)(F)F)c2Cl)nc2cc(C(=O)Nc3ccc(F)c(Cl)c3)c(N3CC[C@@H](F)C3)cc21 [Example 247]
IC50 (mPGES-1 in A549 cells; [2]): 3 nM
IC50 [1, 3]: 3 nM

Cn1c(Nc2c(Cl)ccc(CNC(=O)[C@](C)(O)C(F)(F)F)c2Cl)nc2cc(C(=O)Nc3ccc(F)c(Cl)c3)c(N3CC[C@@H](F)C3)cc21 [Example 248]
IC50 (mPGES-1 in A549 cells; [2]): 6 nM
IC50 [1, 3]: 6.7 nM

Cn1c(Nc2c(Cl)ccc(CNC(=O)C(C)(C)F)c2Cl)nc2cc(C(=O)N[C@H]3CC[C@H](C(F)(F)F)CC3)c(N3CCC(C(F)(F)F)CC3)cc21 [Example 249]
IC50 (mPGES-1 in A549 cells; [2]): 6 nM
IC50 [1, 3]: 4.2 nM

Cn1c(Nc2c(Cl)ccc(CNC(=O)C(C)(C)C(F)(F)F)c2Cl)nc2cc(C(=O)N[C@H]3CC[C@H](C(F)(F)F)CC3)c(N3CCC(C(F)(F)F)CC3)cc21 [Example 250]
IC50 (mPGES-1 in A549 cells; [2]): 1 nM
IC50 [1, 3]: 1.7 nM

Cn1c(Nc2c(Cl)ccc(CNC(=O)[C@@](C)(O)C(F)(F)F)c2Cl)nc2cc(C(=O)N[C@H]3CC[C@H](C(F)(F)F)CC3)c(N3CCC(C(F)(F)F)CC3)cc21 [Example 251]
IC50 (mPGES-1 in A549 cells; [2]): 1 nM
IC50 [1, 3]: 3.9 nM

Cn1c(Nc2c(Cl)ccc(CNC(=O)[C@](C)(O)C(F)(F)F)c2Cl)nc2cc(C(=O)N[C@H]3CC[C@H](C(F)(F)F)CC3)c(N3CCC(C(F)(F)F)CC3)cc21 [Example 252]
IC50 (mPGES-1 in A549 cells; [2]): 1.4 nM
IC50 [1, 3]: 2.9 nM

Cn1c(Nc2c(Cl)ccc(CNC(=O)C(C)(C)F)c2Cl)nc2cc(C(=O)N[C@H]3CC[C@@H](C(F)(F)F)CC3)c(N3CCC(C(F)(F)F)CC3)cc21 [Example 253]
IC50 (mPGES-1 in A549 cells; [2]): 2.4 nM
IC50 [1, 3]: 5.7 nM

Cn1c(Nc2c(Cl)ccc(CNC(=O)C(C)(C)C(F)(F)F)c2Cl)nc2cc(C(=O)N[C@H]3CC[C@@H](C(F)(F)F)CC3)c(N3CCC(C(F)(F)F)CC3)cc21 [Example 254]
IC50 (mPGES-1 in A549 cells; [2]): 1 nM
IC50 [1, 3]: 3.1 nM

Cn1c(Nc2c(Cl)ccc(CNC(=O)[C@](C)(O)C(F)(F)F)c2Cl)nc2cc(C(=O)N[C@H]3CC[C@@H](C(F)(F)F)CC3)c(N3CCC(C(F)(F)F)CC3)cc21 [Example 255]
IC50 (mPGES-1 in A549 cells; [2]): 4 nM
IC50 [1, 3]: 4.3 nM

Cn1c(Nc2c(Cl)ccc(CNC(=O)C(C)(C)F)c2Cl)nc2cc(C(=O)NC3CC(F)(F)C3)c(N3CCC(C(F)(F)F)CC3)cc21 [Example 256]
IC50 (mPGES-1 in A549 cells; [2]): 1 nM
IC50 [1, 3]: 3.9 nM

Cn1c(Nc2c(Cl)ccc(CNC(=O)C(C)(C)C(F)(F)F)c2Cl)nc2cc(C(=O)NC3CC(F)(F)C3)c(N3CCC(C(F)(F)F)CC3)cc21 [Example 257]
IC50 (mPGES-1 in A549 cells; [2]): 3.5 nM
IC50 [1, 3]: 1.9 nM

Cn1c(Nc2c(Cl)ccc(CNC(=O)[C@@](C)(O)C(F)(F)F)c2Cl)nc2cc(C(=O)NC3CC(F)(F)C3)c(N3CCC(C(F)(F)F)CC3)cc21 [Example 258]
IC50 (mPGES-1 in A549 cells; [2]): 4 nM
IC50 [1, 3]: 2.2 nM

Cn1c(Nc2c(Cl)ccc(CNC(=O)[C@](C)(O)C(F)(F)F)c2Cl)nc2cc(C(=O)NC3CC(F)(F)C3)c(N3CCC(C(F)(F)F)CC3)cc21 [Example 259]
IC50 (mPGES-1 in A549 cells; [2]): 2 nM
IC50 [1, 3]: 4.1 nM

Cn1c(Nc2c(Cl)ccc(CNC(=O)C(C)(C)F)c2Cl)nc2cc(C(=O)NCCC(F)(F)F)c(N3CCC(C(F)(F)F)CC3)cc21 [Example 260]
IC50 (mPGES-1 in A549 cells; [2]): 2 nM
IC50 [1, 3]: 4 nM

Cn1c(Nc2c(Cl)ccc(CNC(=O)C(C)(C)C(F)(F)F)c2Cl)nc2cc(C(=O)NCCC(F)(F)F)c(N3CCC(C(F)(F)F)CC3)cc21 [Example 261]
IC50 (mPGES-1 in A549 cells; [2]): 1.6 nM
IC50 [1, 3]: 2.9 nM

Cn1c(Nc2cc(CNC(=O)C(C)(C)C)ccc2Cl)nc2cc(C(=O)Nc3ccc(Br)cc3)c(OCC(F)F)cc21 [[drawing 48] of WO 2010/100249, reference compound]
IC50 (mPGES-1 in A549 cells; [4]): 10 nM
IC50 [1, 5]: 3 nM

Cn1c(Nc2cc(CNC(=O)C(C)(C)C)ccc2Cl)nc2cc(C(=O)NCC3CC3)c(OCC(F)F)cc21 [[drawing 52] of WO 2010/100249, reference compound]
IC50 (mPGES-1 in A549 cells; [4]): > 200 nM
IC50 [1, 5]: 2 nM
